Drawing on patent publication US11427553B2, “Dihydrooxadiazinones” (Bayer Aktiengesellschaft, priority 2017, dated 2022), this text covers IC50, Clblood and Fmax for 8 compounds.

One data set has as its system HeLa cells. In words: Assay 1 cell proliferation measurement (CTG, 72 h), HeLa. It is filed as cell-based, human. The following applies: Homo sapiens, HeLa; Assay 1, 72 h, Cell Titer Glo; read-out: HeLa IC50 [nM] (Cervical cancer). The gist of the method:
(§1)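 CTG luminescence readout after 72 h compound exposure at 37 °C; 10-point 2.5-fold dilutions from 100 nM max final; DMSO 0.3% vehicle. IC50 from 4-parameter fit, normalised to 0 h plate (max inhibition) and DMSO (min inhibition).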
In general terms: Cellular ATP, detected with luciferase, serves as a proxy for viable cell number.

For a further data set, the system named is SK-MEL-3 cells. In words: Assay 1 cell proliferation measurement (CTG, 72 h), SK-MEL-3. As to conditions: Homo sapiens, SK-MEL3; Assay 1, 72 h, Cell Titer Glo; read-out: SK-MEL-3 IC50 [nM] (melanoma). It is filed as cell-based, human. The essentials: as §1
In another data set the test system is H4 cells. In words: Assay 1 cell proliferation measurement, H4. In kind it is cell-based. The following applies: Homo sapiens; Astrocytoma; read-out: Anti-proliferation IC50 [nM] H4.
The test system of the next data set is NCI-H1734 cells. In words: Assay 1 cell proliferation measurement, NCI-H1734. It is filed as cell-based. As to conditions: Homo sapiens, Lung, read-out: Anti-proliferation IC50 [nM] NCI-H1734.
The target of another data set is human full length PDE3A (Homo sapiens (Human), UniProt Q14432). As to the kind of experiment: Assay 4 PDE3A enzyme inhibition (3H-cAMP SPA). It is filed as biochemical. The following applies: Sf9 cell extract. The essentials:
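Hydrolysis of [8-3H]cAMP by Sf9-expressed full-length PDE3A was measured by scintillation proximity, with enzyme diluted to keep kinetics linear and substrate consumption below 70%. Incubation ran 60 min at room temperature at pH 7.5.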

A further data set concerns the target human full length PDE3B (Homo sapiens (Human), UniProt Q13370). In words: Assay 5 PDE3B enzyme inhibition (3H-cAMP SPA). As to conditions: Sf9 cell extract. It is filed as biochemical. The essentials: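 Inhibition was measured by scintillation proximity using [8-3H]adenosine 3′,5′-cyclic phosphate as substrate and full-length human PDE3B from an Sf9 overexpression extract, run one hour at room temperature at pH 7.5.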

A short description of data set [1]: Assay 6 in vitro metabolic stability in cryopreserved human hepatocytes (CL, Fmax). In kind it is in vitro ADME. The following applies: 1 μM test compound; for Clblood: hepatic in vivo blood clearance calculated (well-stirred) from half-life in cryopreserved human hepatocytes; for Fmax: maximal oral bioavailability calculated from half-life in cryopreserved human hepatocytes. The gist of the method: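 Test compound at 1 μM incubated with cryopreserved human hepatocytes (1.0×10^6 viable cells/ml, WME with 5% FCS) under shaking, with samples taken from 2 to 90 min, methanol-quenched and analysed by LC-MS/MS. Half-life gave intrinsic clearance, scaled with liver blood flow and hepatocellularity to CL and Fmax.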

Another data set has as its system IGR37 cells. As to the kind of experiment: Assay 1 cell proliferation measurement (CTG, 72 h), IGR37. In kind it is cell-based. The following applies: Homo sapiens, IGR-37, Cell Titer Glo, read-out: IGR37 IC50 [nM] (melanoma).
In another data set the test system is Hs 578T cells. In words: Assay 1 cell proliferation measurement, Hs 578T. It is filed as cell-based. As to conditions: Homo sapiens, Breast, read-out: Anti-proliferation IC50 [nM] Hs 578T.
A further data set concerns HEL 92.1.7 cells. In words: Assay 1 cell proliferation measurement, HEL 92.1.7. In kind it is cell-based. As to conditions: Homo sapiens, Erythroleukemia, read-out: Anti-proliferation IC50 [nM] HEL 92.1.7.
Another data set relates to DK-MG cells. In words: Assay 1 cell proliferation measurement, DK-MG. It is filed as cell-based. As to conditions: Homo sapiens; Glioblastoma; read-out: Anti-proliferation IC50 [nM] DK-MG.
The next data set has as its system DBTRG-05-MG cells. In words: Assay 1 cell proliferation measurement, DBTRG-05-MG. In kind it is cell-based. The following applies: Homo sapiens, Glioblastoma, read-out: Anti-proliferation IC50 [nM] DBTRG-05-MG.
A further data set has as its system CHL-1 cells. As to the kind of experiment: Assay 1 cell proliferation measurement, CHL-1. As to conditions: Homo sapiens, Melanoma, read-out: Anti-proliferation IC50 [nM] CHL-1. In kind it is cell-based.
Another data set concerns A-2058 cells. As to the kind of experiment: Assay 1 cell proliferation measurement, A-2058. In kind it is cell-based. As to conditions: Homo sapiens, A2058; Melanoma; read-out: Anti-proliferation IC50 [nM] A-2058.
The next data set concerns PA-1 cells. As to the kind of experiment: Assay 1 cell proliferation measurement, PA-1. The following applies: Homo sapiens, Ovarian teratocarcinoma, read-out: Anti-proliferation IC50 [nM] PA-1. In kind it is cell-based.
A further data set has as its system IGR-1 cells. As to the kind of experiment: Assay 1 cell proliferation measurement, IGR-1. In kind it is cell-based. The following applies: Homo sapiens, Melanoma, read-out: Anti-proliferation IC50 [nM] IGR-1.
The next data set concerns HMCB cells. As to the kind of experiment: Assay 1 cell proliferation measurement, HMCB. In kind it is cell-based. As to conditions: Homo sapiens, Melanoma, read-out: Anti-proliferation IC50 [nM] HMCB.

Sequence of human full length PDE3B (Q13370 whole entry): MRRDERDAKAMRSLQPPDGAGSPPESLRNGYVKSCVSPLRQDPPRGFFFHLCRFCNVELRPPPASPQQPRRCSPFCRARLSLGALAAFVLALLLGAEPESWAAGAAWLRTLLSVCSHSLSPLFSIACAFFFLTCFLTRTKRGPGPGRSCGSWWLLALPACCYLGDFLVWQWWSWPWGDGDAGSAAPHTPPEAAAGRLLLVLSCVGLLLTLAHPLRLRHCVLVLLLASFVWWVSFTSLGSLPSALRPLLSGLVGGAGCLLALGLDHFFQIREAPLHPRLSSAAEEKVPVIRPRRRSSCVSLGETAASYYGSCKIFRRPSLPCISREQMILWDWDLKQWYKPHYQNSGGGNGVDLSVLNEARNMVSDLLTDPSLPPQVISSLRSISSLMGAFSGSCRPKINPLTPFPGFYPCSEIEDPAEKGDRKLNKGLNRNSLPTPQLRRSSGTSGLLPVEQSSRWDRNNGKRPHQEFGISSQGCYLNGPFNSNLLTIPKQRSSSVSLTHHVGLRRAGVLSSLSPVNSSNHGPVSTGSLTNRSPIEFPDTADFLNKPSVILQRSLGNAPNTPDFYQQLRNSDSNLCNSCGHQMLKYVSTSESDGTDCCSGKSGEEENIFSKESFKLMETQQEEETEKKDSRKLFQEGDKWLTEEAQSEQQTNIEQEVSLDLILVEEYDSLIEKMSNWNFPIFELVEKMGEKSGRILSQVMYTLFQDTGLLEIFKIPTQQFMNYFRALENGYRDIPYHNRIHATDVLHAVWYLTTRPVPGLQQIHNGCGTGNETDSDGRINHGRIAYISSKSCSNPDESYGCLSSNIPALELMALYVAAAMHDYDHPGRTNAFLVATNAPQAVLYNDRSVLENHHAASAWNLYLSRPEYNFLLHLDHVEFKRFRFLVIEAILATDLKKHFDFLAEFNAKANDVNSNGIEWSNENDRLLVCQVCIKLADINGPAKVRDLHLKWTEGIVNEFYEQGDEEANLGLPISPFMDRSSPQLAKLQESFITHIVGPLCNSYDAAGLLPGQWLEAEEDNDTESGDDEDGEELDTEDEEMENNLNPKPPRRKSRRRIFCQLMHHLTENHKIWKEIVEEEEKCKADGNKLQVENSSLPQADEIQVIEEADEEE
Sequence of human full length PDE3A (Q14432 whole entry): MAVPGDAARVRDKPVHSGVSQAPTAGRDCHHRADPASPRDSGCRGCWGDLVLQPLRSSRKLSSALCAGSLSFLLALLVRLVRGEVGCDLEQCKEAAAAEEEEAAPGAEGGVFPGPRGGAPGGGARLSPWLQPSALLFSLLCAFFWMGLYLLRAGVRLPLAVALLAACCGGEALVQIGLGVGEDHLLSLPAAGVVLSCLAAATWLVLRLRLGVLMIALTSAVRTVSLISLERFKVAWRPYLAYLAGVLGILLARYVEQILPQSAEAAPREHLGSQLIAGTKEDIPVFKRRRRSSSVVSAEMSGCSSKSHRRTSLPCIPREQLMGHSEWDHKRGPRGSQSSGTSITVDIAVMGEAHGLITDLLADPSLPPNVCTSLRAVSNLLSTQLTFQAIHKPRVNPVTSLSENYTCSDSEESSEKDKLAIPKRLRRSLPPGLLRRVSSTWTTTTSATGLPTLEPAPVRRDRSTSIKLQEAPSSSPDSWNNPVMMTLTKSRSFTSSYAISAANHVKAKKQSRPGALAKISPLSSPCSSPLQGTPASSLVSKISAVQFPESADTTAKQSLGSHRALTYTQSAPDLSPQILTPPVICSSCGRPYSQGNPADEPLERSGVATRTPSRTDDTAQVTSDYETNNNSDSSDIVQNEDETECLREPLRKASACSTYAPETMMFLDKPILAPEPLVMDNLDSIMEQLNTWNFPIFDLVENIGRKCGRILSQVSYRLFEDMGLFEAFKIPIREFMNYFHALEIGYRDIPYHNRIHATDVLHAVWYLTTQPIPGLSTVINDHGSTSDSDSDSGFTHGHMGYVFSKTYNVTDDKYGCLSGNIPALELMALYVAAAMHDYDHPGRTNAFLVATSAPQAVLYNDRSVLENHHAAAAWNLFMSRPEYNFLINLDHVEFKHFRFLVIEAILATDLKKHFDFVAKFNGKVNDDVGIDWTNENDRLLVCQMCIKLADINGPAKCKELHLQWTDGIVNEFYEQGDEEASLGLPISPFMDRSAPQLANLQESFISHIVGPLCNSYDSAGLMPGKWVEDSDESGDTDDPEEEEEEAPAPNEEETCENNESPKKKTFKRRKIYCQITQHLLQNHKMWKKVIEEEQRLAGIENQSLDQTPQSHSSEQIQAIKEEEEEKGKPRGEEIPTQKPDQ

Turning to `Cc1cc(C2=NNC(=O)OC2)ccc1-c1ccc(F)cc1` [Example 7, 5-(4′-Fluoro-2-methylbiphenyl-4-yl)-3,6-dihydro-2H-1,3,4-oxadiazin-2-one], the IC50 in the data set on HeLa cells was 5 nM; in the data set on SK-MEL-3 cells it was 13 nM; in the data set with H4 cells, 44 nM; in the data set on NCI-H1734 cells, 26 nM; against human full length PDE3A it was 220 nM; against human full length PDE3B, 170 nM. For the same compound, the Clblood in data set [1] is 5.5 mL/min/kg. Further, in data set [1], the Fmax is given as 75%.

Consider `COCCCc1ccc(C2=NNC(=O)OC2)cc1C(F)(F)F` [Example 267, 5-[4-(3-Methoxypropyl)-3-(trifluoromethyl)phenyl]-3,6-dihydro-2H-1,3,4-oxadiazin-2-one], for which the IC50 turned out to be 2 nM in the data set on HeLa cells; 5 nM with SK-MEL-3 cells; 7 nM with IGR37 cells; 34 nM in the data set on Hs 578T cells; 26 nM in the data set with HEL 92.1.7 cells; 18 nM in the data set on DK-MG cells. The IC50 with DBTRG-05-MG cells was found to be 35 nM; in the data set with CHL-1 cells it was 16 nM; in the data set on A-2058 cells, 40 nM; in the data set with PA-1 cells, 44 nM; against human full length PDE3A, 145 nM; on human full length PDE3B, 185 nM. Also, in data set [1], the Clblood is 4.5 mL/min/kg. Moreover, the Fmax in data set [1] is 80%.

Take `O=C1NN=C(c2ccc(N3CCOCC3)c(F)c2)CO1` [Example 4, 5-[3-Fluoro-4-(morpholin-4-yl)phenyl]-3,6-dihydro-2H-1,3,4-oxadiazin-2-one]: the IC50 with HeLa cells turned out to be 7 nM; with SK-MEL-3 cells it was 16 nM; in the data set with H4 cells, 47 nM; in the data set with NCI-H1734 cells, 40 nM; at human full length PDE3A, 203 nM; at human full length PDE3B it was 154 nM. The Clblood in data set [1] was under 0.17 mL/min/kg. In [1], the Fmax is listed as 100%.

Consider `Cc1cc(C2=NNC(=O)OC2)ccc1-c1ccc(F)c(F)c1` [Example 8, 5-(3′,4′-Difluoro-2-methylbiphenyl-4-yl)-3,6-dihydro-2H-1,3,4-oxadiazin-2-one], for which the IC50 with HeLa cells was 6 nM; in the data set on SK-MEL-3 cells it was 18 nM; with IGR37 cells it was 16 nM; with H4 cells it was 50 nM; in the data set with NCI-H1734 cells it was 42 nM; at human full length PDE3A, 210 nM. Further, the IC50 against human full length PDE3B was 243 nM.

For `CC(C)(C)CCc1ccc(C2=NNC(=O)OC2)cc1C(F)(F)F` [Example 269, 5-[4-(3,3-Dimethylbutyl)-3-(trifluoromethyl)phenyl]-3,6-dihydro-2H-1,3,4-oxadiazin-2-one], the IC50 in the data set with HeLa cells was determined as 6 nM; in the data set on SK-MEL-3 cells, 17 nM; in the data set with IGR37 cells it was 24 nM; in the data set with Hs 578T cells it was 66 nM; with HEL 92.1.7 cells, 44 nM; in the data set with DK-MG cells, 49 nM. Further, the IC50 is 50 nM in the data set on DBTRG-05-MG cells; 47 nM in the data set with CHL-1 cells; 61 nM in the data set with A-2058 cells; 49 nM in the data set on PA-1 cells; 695 nM on human full length PDE3A; 790 nM against human full length PDE3B. Besides, in data set [1], the Clblood is 6.83 mL/min/kg. In addition, the Fmax in data set [1] is reported as 69%.

`O=C1NN=C(c2ccc(-c3ccc(C(F)F)cc3)c(F)c2)CO1` [Example 92, 5-[4′-(Difluoromethyl)-2-fluoro[1,1′-biphenyl]-4-yl]-3,6-dihydro-2H-1,3,4-oxadiazin-2-one]: the IC50 in the data set with HeLa cells came to 2 nM; in the data set with SK-MEL-3 cells it was 4 nM; in the data set on IGR37 cells it was 4 nM; in the data set on Hs 578T cells, 31 nM; with HEL 92.1.7 cells, 9 nM; in the data set with DK-MG cells, 17 nM. Moreover, the IC50 in the data set on DBTRG-05-MG cells was 18 nM; in the data set on CHL-1 cells, 11 nM; with A-2058 cells, 18 nM; in the data set on PA-1 cells it was 17 nM; against human full length PDE3A, 68 nM; against human full length PDE3B it was 130 nM.

`O=C1NN=C(c2ccc(N3CCC(F)(F)CC3)c(F)c2)CO1` [Example 1, 5-[4-(4,4-Difluoropiperidin-1-yl)-3-fluorophenyl]-3,6-dihydro-2H-1,3,4-oxadiazin-2-one]: the IC50 in the data set on HeLa cells was determined as 2 nM; with SK-MEL-3 cells, 3 nM; with HEL 92.1.7 cells it was 20 nM; in the data set with H4 cells, 30 nM; in the data set on NCI-H1734 cells it was 19 nM; with IGR-1 cells, 89 nM. The IC50 in the data set on HMCB cells was determined as 19 nM; on human full length PDE3A, 275 nM; against human full length PDE3B, 173 nM. Besides, in data set [1], the Clblood is 4 mL/min/kg. Besides, in [1], the Fmax is recorded as 82%.

In the case of `Cc1ccc(C2=NNC(=O)OC2)cc1C(F)(F)F` [Example 139, 5-[4-Methyl-3-(trifluoromethyl)phenyl]-3,6-dihydro-2H-1,3,4-oxadiazin-2-one], the IC50 is 14 nM in the data set on HeLa cells; 29 nM in the data set with SK-MEL-3 cells; 40 nM in the data set with IGR37 cells; over 100 nM in the data set with Hs 578T cells; over 100 nM in the data set on HEL 92.1.7 cells; 61 nM with DK-MG cells. The IC50 with DBTRG-05-MG cells was over 100 nM; with CHL-1 cells, 58 nM; in the data set with A-2058 cells, over 100 nM; in the data set with PA-1 cells, over 100 nM; at human full length PDE3A it was 140 nM; on human full length PDE3B, 310 nM.
